Values of other authors as cited in publication PMC11956011, “An Amazing 30-Year Journey around the DABO Family: A Medicinal Chemistry Lesson on a Versatile Class of Non-nucleoside HIV-1 Reverse Transcriptase Inhibitors” (Journal of Medicinal Chemistry, 2025).
Like-named read-outs stand apart in the source and are kept apart here.

Experiments:
[1] = system: Y181C HIV-1 mutant strain; settings: for Fold-resistance Y181C (EC50): Fig 10, in brackets
HIV-1 = settings: for IC50: read-out: IC50 (HIV-1 cytopathic effect in cells)
[2] = system: Y188L HIV-1 mutant strain
[3] = system: HIV-1 RT (WT, recombinant); settings: for IC50: read-out: IC50 (HIV-1 RT)
Y181I HIV-1 RT = settings: for ID50: Y181I: Fig 10; for Fold-resistance Y181I RT (ID50): Fig 10, in brackets
L100I HIV-1 RT = settings: for Fold-resistance L100I RT (ID50): Fig 10, in brackets
[4] = system: K103N HIV-1 mutant strain; settings: for Fold-resistance K103N (EC50): Fig 10, in brackets
[5] = Fig 10, read-out: EC50: NL4-3 wt
[6] = read-out: EC50 against WT HIV-1
[7] = Fig 5, read-out: EC50: NL4-3 wt

COc1cc(F)c(C(=O)c2ccnc(Nc3ccc(C#N)cc3)n2)c(F)c1 [compound 169]
EC50: Y181C ([1]; Fig 12, DAPY-DABO carbonyl hybrids): no activity

Cc1c(Cc2c(Cl)cccc2Cl)nc(SCC(=O)Nc2ccc(Cl)cc2)[nH]c1=O [compound 105]
CC50 (mock-infected cells; Fig 10): > 267000 nM | SI (HIV-1; Fig 10): > 836

CCc1c(Cc2c(Cl)cccc2Cl)nc(SCC(=O)c2ccccc2)[nH]c1=O [compound 101]
EC50 ([2]; Fig 10): 5000 nM | Fold-resistance Y188L (EC50) ([2]; Fig 10, in brackets): 714 | CC50 (mock-infected cells; Fig 10): > 52000 nM | ID50: WT ([3]; Fig 10): 71 nM | ID50: Y181I (Y181I HIV-1 RT): 330 nM | Fold-resistance Y181I RT (ID50) (Y181I HIV-1 RT): 5 | EC50 (HIV-1 NL4-3 wt; [5]): 7 nM | EC50 ([1]; Fig 10): 46 nM | Fold-resistance Y181C (EC50) [1]: 7 | ID50: L100I (L100I HIV-1 RT; Fig 10): 3540 nM | Fold-resistance L100I RT (ID50) (L100I HIV-1 RT): 50 | EC50 ([4]; Fig 10): 1200 nM | Fold-resistance K103N (EC50) [4]: 171 | SI (HIV-1; Fig 10): > 7429

Cc1c(C(C)c2c(F)cccc2Cl)nc(SC(C)C)[nH]c1=O (stereo not shown) [compound 41]
EC50 ([2]; Fig 5): 3400 nM | CC50 (mock-infected cells; Fig 5): > 15000 nM | EC50 ([1]; Fig 5): 250 nM | EC50 ([4]; Fig 5): 140 nM

O=C1c2ccccc2C(=O)N1CCSc1nc(Cc2c(F)cccc2F)cc(=O)[nH]1 [compound 75]
CC50 (mock-infected cells; Fig 9): > 100000 nM | EC50 (HIV-1; Fig 9): 17000 nM | SI (HIV-1; Fig 9): > 5.9

CCC(C)Sc1nc(O)c(C)c(Cc2c(Cl)cccc2Cl)n1 (stereo not shown) [compound 29]
CC50 (mock-infected cells; Fig 5): > 200000 nM | IC50 ([3]; Fig 5): 60 nM | SI (HIV-1; Fig 5): > 4000

CCc1c(Cc2c(F)cccc2F)nc(SCC(=O)c2ccccc2)[nH]c1=O [compound 104]
EC50 ([2]; Fig 10): > 56000 nM | CC50 (mock-infected cells; Fig 10): 56000 nM | ID50: WT ([3]; Fig 10): 43 nM | ID50: Y181I (Y181I HIV-1 RT): 820 nM | Fold-resistance Y181I RT (ID50) (Y181I HIV-1 RT): 19 | EC50 (HIV-1 NL4-3 wt; [5]): 12 nM | EC50 ([1]; Fig 10): 200 nM | Fold-resistance Y181C (EC50) [1]: 17 | ID50: L100I (L100I HIV-1 RT; Fig 10): 5400 nM | Fold-resistance L100I RT (ID50) (L100I HIV-1 RT): 126 | EC50 ([4]; Fig 10): 1300 nM | Fold-resistance K103N (EC50) [4]: 108 | SI (HIV-1; Fig 10): 4667

COc1ccc(CSc2nc(C(C)c3c(F)cccc3F)c(C)c(=O)[nH]2)cc1 (stereo not shown) [compound 140, 6-[1-(2,6-difluorophenyl)ethyl]-2-[(4-methoxybenzyl)thio]-5-methyl-4(3H)-pyrimidinone]
EC50 (HIV-1 NL4-3 wt; [6]): 0.025 nM

CC(=O)c1ccc(Cn2cc(CSc3nc(Cc4c(Cl)cccc4Cl)c(C)c(=O)[nH]3)nn2)cc1 [compound 92]
EC50 (HIV-1; Fig 9): 3860 nM | SI (HIV-1; Fig 9): 8

CCCCSc1nc(C(C)c2c(F)cccc2Cl)cc(=O)[nH]1 (stereo not shown) [compound 39]
EC50 ([2]; Fig 5): 5600 nM | CC50 (mock-infected cells; Fig 5): > 73000 nM | ID50: WT ([3]; Fig 5): 10 nM | EC50 (HIV-1 NL4-3 wt; [7]): 0.3 nM | EC50 ([1]; Fig 5): 3900 nM | ID50: L100I (L100I HIV-1 RT; Fig 5): 600 nM | EC50 ([4]; Fig 5): 1100 nM

CCc1c(Cc2ccccc2Br)nc(SCc2ccc(OC)cc2)[nH]c1=O [compound 87]
CC50 (mock-infected cells; Fig 9): 165000 nM | SI (HIV-1; Fig 9): 717 | IC50 (HIV-1; Fig 9): 230 nM

CCCCSc1nc(O)c(C)c(C(C)c2c(F)cccc2F)n1 (stereo not shown) [compound 37]
EC50 (HIV-1; Fig 5, MT-4 cells): 8 nM

Cc1cc(=O)[nH]c(SCCN2C(=O)c3ccccc3C2=O)n1 [compound 74]
SI (HIV-1; Fig 9): 61.6

CCOCn1c(Cc2ccccc2)c(C(C)C)c(=O)[nH]c1=O [Emivirine, reference compound]
CC50 (mock-infected cells): 186000 nM | EC50 (HIV-1; Fig 4): 4.2 nM | SI (HIV-1; Fig 4): 44000

CC(c1cc(=O)[nH]c(SC2CCCC2)n1)c1c(F)cccc1Cl (stereo not shown) [compound 40]
EC50 ([2]; Fig 5): > 71000 nM | CC50 (mock-infected cells; Fig 5): > 71000 nM | ID50: WT ([3]; Fig 5): 15 nM | EC50 (HIV-1 NL4-3 wt; [7]): 0.3 nM | EC50 ([1]; Fig 5): 3000 nM | ID50: L100I (L100I HIV-1 RT; Fig 5): 1100 nM | EC50 ([4]; Fig 5): 900 nM

CCc1c(Cc2cc(C)cc(C)c2)nc(SCc2ccc(OC)cc2)[nH]c1=O [compound 90]
CC50 (mock-infected cells; Fig 9): > 317000 nM | SI (HIV-1; Fig 9): > 2642 | IC50 (HIV-1; Fig 9): 120 nM

Cc1cccc(Cc2cc(=O)[nH]c(OC3CCCCC3)n2)c1 [compound 6]
SI (HIV-1; CC50/EC50, Fig 3): > 400

CCc1c(Cc2ccccc2Br)nc(SCc2ccc([N+](=O)[O-])cc2)[nH]c1=O [compound 88]
CC50 (mock-infected cells; Fig 9): > 272000 nM | SI (HIV-1; Fig 9): > 368 | IC50 (HIV-1; Fig 9): 740 nM

Nc1nc2c(c(=O)[nH]1)CCC2c1ccccc1 (stereo not shown) [compound 27, 2-amino-7-phenyl-6,7-dihydro-5H-cyclopenta[d]-4(3H)-pyrimidinone]
anti-HIV-1 activity (in words) (HIV-1): lacked anti-HIV-1 activity

Nc1cc(Cl)nc(Sc2ccccc2)n1 [compound 20]
EC50 (HIV-1; Fig 4): 90000 nM | SI (HIV-1; Fig 4): 2.3

Cc1c(Cc2c(Cl)cccc2Cl)nc(SCc2cn(Cc3ccc(S(N)(=O)=O)cc3)nn2)[nH]c1=O [compound 93]
EC50 (HIV-1; Fig 9): 3220 nM | SI (HIV-1; Fig 9): 30

CCc1c(Cc2cc(C)cc(C)c2)nc(SCc2ccc([N+](=O)[O-])cc2)[nH]c1=O [compound 91]
CC50 (mock-infected cells; Fig 9): > 305000 nM | SI (HIV-1; Fig 9): > 1906 | IC50 (HIV-1; Fig 9): 160 nM

Cc1c(C(C)c2c(F)cccc2Cl)nc(SC2CCCC2)[nH]c1=O (stereo not shown) [compound 43]
EC50 ([2]; Fig 5): 2900 nM | CC50 (mock-infected cells; Fig 5): > 15000 nM | ID50: WT ([3]; Fig 5): 11 nM | EC50 (HIV-1 NL4-3 wt; [7]): 0.03 nM | EC50 ([1]; Fig 5): 230 nM | ID50: L100I (L100I HIV-1 RT; Fig 5): 120 nM | EC50 ([4]; Fig 5): 93 nM

CCc1c(Cc2cccc(Br)c2)nc(SCc2ccc(OC)cc2)[nH]c1=O [compound 89]
CC50 (mock-infected cells; Fig 9): 201000 nM | SI (HIV-1; Fig 9): 718 | IC50 (HIV-1; Fig 9): 280 nM

CCC(C)Oc1nc(Cc2cc(C)cc(C)c2)c(C)c(=O)[nH]1 (stereo not shown) [compound 7]
SI (HIV-1; CC50/EC50, Fig 3): > 400

2-(cyclopentylthio)-6-[(1R)-1-(2,6-difluorophenyl)ethyl]-5-methyl-4(3H)-pyrimidinone [[+]-38]
CC50 (mock-infected cells; Fig 5): > 200000 nM | IC50 ([3]; Fig 5, printed without unit): 8 nM | EC50 (HIV-1): 2 nM | SI (HIV-1): > 100000

Cc1c(Cc2c(Cl)cccc2Cl)nc(SCC(=O)Nc2ccc(F)c(F)c2)[nH]c1=O [compound 108]
CC50 (mock-infected cells; Fig 10): > 266000 nM | SI (HIV-1; Fig 10): > 387

COc1ccc(Cn2cc(CSc3nc(Cc4c(Cl)cccc4Cl)c(C)c(=O)[nH]3)nn2)cc1 [compound 94]
SI (HIV-1; Fig 9): 6

CCOC1CSc2nc(=O)c(CC)c(Cc3cc(C)cc(C)c3)n21 (stereo not shown) [compound 24]
CD50 (mock-infected cells; Fig 4): > 100 µM | SI (HIV-1; CD50/ED50, Fig 4): > 140 | ED50 (HIV-1; Fig 4): 700 nM

CCCSc1nc(C(C)c2c(F)cccc2Cl)c(C)c(=O)[nH]1 (stereo not shown) [compound 42]
EC50 ([2]; Fig 5): > 1500 nM | CC50 (mock-infected cells; Fig 5): > 1500 nM | ID50: WT ([3]; Fig 5): 0.9 nM | EC50 (HIV-1 NL4-3 wt; [7]): 0.05 nM | EC50 ([1]; Fig 5): 260 nM | ID50: L100I (L100I HIV-1 RT; Fig 5): 90 nM | EC50 ([4]; Fig 5): 350 nM

Cc1c(Cc2c(Cl)cccc2Cl)nc(SCC(=O)Nc2ccc(Br)cc2)[nH]c1=O [compound 106]
CC50 (mock-infected cells; Fig 10): > 244000 nM | SI (HIV-1; Fig 10): > 1326

CCC(C)Sc1nc(O)cc(C(C)c2c(F)cccc2F)n1 (stereo not shown) [compound 34]
CC50 (mock-infected cells; Fig 5): > 200000 nM | SI (HIV-1; Fig 5): > 6666 | EC50 (HIV-1; Fig 5, MT-4 cells): 30 nM

CCC(C)Sc1nc(O)cc(Cc2c(F)cccc2F)n1 (stereo not shown) [compound 31]
CC50 (mock-infected cells; Fig 5): > 200000 nM | IC50 ([3]; Fig 5): 50 nM | SI (HIV-1; Fig 5): > 5000

CCC(C)Oc1nc(N)cc(S(=O)(=O)c2cccc(C)c2)n1 (stereo not shown) [compound 22]
CC50 (mock-infected cells; Fig 4): > 200000 nM | SI (HIV-1; Fig 4): > 43

CCN(CC)CCc1cc(=O)[nH]c(SC)n1 [compound 184]
CC50 (mock-infected cells): 250 µg/mL

Cc1c(C(C)c2c(F)cccc2F)nc(SCc2ccc(C#N)cc2)[nH]c1=O (stereo not shown) [compound 141]
EC50 (HIV-1 NL4-3 wt; [6]): 7.8 nM

CCC(C)Sc1nc(O)cc(Cc2c(Cl)cccc2Cl)n1 (stereo not shown) [compound 28]
CC50 (mock-infected cells; Fig 5): > 200000 nM | IC50 ([3]; Fig 5): 100 nM | SI (HIV-1; Fig 5): > 1428

Cc1c(C(C)c2c(F)cccc2F)nc(SCc2ccc([N+](=O)[O-])cc2)[nH]c1=O (stereo not shown) [compound 142]
EC50 (HIV-1 NL4-3 wt; [6]): 3.3 nM
